Test results from ChEMBL document CHEMBL1152924, “Synthetic staurosporines via a ring closing metathesis strategy as potent JAK3 inhibitors and modulators of allergic responses” (Bioorg Med Chem Lett, 2009).
pIC50: −log10 of the molar value.

Columns and labels:
Jurkat [1] = experiment: Antiproliferative activity against JAK3 expressing human resting Jurkat cells; assay type: functional, cell-based
[2] = target: T1, Tyrosine-protein kinase JAK3 (Homo sapiens, UniProt P52333); experiment: Inhibition of JAK3 expressed in insect Sf21 cells assessed as inhibition of biotinylated substrate phosphorylation
T1 sequence (P52333 whole entry): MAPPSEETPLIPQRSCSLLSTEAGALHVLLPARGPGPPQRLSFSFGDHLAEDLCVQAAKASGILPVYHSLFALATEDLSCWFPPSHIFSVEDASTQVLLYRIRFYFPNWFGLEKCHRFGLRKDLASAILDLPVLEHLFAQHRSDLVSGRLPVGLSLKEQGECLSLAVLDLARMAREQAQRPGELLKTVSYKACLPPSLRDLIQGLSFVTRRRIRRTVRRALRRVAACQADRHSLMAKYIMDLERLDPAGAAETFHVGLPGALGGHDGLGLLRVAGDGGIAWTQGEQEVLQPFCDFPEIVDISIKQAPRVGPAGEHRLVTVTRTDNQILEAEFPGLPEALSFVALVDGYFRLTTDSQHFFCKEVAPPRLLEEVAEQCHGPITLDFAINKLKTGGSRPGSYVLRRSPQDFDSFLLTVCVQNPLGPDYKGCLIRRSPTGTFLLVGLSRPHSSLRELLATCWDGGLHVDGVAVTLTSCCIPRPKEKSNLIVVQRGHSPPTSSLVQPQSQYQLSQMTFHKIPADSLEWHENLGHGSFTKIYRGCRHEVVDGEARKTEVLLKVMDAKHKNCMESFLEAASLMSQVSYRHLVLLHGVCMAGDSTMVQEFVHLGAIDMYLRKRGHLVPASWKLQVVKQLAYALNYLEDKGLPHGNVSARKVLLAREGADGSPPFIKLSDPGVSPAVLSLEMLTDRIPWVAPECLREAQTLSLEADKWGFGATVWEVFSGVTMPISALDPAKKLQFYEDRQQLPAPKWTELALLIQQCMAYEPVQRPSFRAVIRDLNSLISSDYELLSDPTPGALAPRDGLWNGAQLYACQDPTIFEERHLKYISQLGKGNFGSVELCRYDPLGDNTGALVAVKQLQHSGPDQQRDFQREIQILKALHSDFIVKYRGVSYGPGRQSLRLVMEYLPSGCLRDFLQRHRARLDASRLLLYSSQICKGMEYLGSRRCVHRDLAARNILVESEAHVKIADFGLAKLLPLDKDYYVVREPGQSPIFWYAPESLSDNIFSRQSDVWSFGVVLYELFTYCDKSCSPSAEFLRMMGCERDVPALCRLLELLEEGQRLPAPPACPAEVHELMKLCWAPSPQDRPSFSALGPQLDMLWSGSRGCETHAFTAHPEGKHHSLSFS

[3] = target: Tyrosine-protein kinase SYK (Homo sapiens, UniProt P43405); experiment: Inhibition of SYK-mediated inhibition of biotinylated substrate phosphorylation
[4] = target: Tyrosine-protein kinase Lck (Homo sapiens, UniProt P06239); experiment: Inhibition of LCK-mediated inhibition of biotinylated substrate phosphorylation
Chain of Tyrosine-protein kinase Lck (P06239 whole entry): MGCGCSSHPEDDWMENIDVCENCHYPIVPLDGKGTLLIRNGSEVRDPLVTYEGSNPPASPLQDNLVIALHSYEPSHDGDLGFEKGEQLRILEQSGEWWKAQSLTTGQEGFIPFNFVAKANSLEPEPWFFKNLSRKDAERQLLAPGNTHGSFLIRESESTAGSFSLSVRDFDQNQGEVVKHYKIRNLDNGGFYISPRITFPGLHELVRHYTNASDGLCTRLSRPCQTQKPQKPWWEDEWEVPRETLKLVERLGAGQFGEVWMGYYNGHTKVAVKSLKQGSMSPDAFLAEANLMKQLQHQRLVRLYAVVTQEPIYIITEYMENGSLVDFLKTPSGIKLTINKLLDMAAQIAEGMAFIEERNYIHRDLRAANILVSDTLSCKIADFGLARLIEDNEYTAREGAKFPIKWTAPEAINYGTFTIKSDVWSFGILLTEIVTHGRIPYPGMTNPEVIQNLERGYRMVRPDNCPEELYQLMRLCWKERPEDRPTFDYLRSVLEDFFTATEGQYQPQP

[5] = target: MAP kinase-activated protein kinase 2 (Homo sapiens, UniProt P49137); experiment: Inhibition of MK2-mediated inhibition of biotinylated substrate phosphorylation
Chain of MAP kinase-activated protein kinase 2 (P49137 whole entry): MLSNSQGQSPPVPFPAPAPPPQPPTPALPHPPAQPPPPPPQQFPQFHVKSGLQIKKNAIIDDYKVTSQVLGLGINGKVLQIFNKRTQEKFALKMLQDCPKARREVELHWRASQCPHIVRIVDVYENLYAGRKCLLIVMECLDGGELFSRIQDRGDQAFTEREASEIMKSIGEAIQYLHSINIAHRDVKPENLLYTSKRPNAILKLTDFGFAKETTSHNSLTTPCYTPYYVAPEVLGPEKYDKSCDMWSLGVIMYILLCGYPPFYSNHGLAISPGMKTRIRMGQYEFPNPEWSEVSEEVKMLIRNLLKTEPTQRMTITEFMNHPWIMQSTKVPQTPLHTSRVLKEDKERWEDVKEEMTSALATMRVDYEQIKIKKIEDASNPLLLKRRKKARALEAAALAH

[6] = target: T2, Tyrosine-protein kinase ZAP-70 (Homo sapiens, UniProt P43403); experiment: Inhibition of Zap70-mediated inhibition of biotinylated substrate phosphorylation
T2 sequence (P43403 whole entry): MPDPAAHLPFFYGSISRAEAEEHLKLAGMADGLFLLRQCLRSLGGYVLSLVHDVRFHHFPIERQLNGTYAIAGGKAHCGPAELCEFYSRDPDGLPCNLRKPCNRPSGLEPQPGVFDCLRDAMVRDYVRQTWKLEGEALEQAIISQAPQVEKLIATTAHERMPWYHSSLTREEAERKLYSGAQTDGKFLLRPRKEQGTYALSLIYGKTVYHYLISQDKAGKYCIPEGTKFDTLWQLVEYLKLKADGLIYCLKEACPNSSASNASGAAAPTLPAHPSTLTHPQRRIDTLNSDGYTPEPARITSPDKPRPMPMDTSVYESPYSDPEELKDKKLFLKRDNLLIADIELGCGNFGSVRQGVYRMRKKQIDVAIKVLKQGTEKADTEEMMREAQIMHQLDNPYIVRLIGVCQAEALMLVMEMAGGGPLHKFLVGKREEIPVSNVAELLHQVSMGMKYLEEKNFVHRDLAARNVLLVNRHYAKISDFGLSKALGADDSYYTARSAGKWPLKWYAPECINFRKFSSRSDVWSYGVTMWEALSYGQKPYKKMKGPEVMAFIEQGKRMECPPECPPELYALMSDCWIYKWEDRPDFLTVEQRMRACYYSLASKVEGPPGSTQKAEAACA

Jurkat [7] = experiment: Antiproliferative activity against JAK3 expressing IL2-stimulated human Jurkat cells; assay type: functional, cell-based
Mus musculus [8] = experiment: Antiinflammatory activity against ovalbumin-induced asthma in BALB/c mouse model assessed as reduction of neutrophil count in broncheovular lavage fluid at 30 mg/kg, ip measured on day 32 after ovalbumin challenge; assay type: functional; set-up: scale not given: the % may be the effect or the level left; conditions: route intraperitoneal
T-cell = experiment: Inhibition of IL2-induced PHA-stimulated healthy human T cells proliferation by [3H]thymidine assay; assay type: functional, cell-based
Mus musculus [9] = experiment: Inhibition of ovalbumin-induced IgE production in mouse at 10 mg/kg, ip administered on day 1, 3 and 5 after 1 hr of ovalbumin challenge followed by additional dosing on day 2 and 4 measured on day 8 by ELISA; assay type: functional; set-up: scale not given: the % may be the effect or the level left; conditions: route intraperitoneal
Mus musculus [10] = experiment: Antiinflammatory activity against ovalbumin-induced asthma in BALB/c mouse model assessed as reduction of eosinophil count in broncheovular lavage fluid at 30 mg/kg, ip measured on day 32 after ovalbumin challenge; assay type: functional; set-up: scale not given: the % may be the effect or the level left; conditions: route intraperitoneal
Mast cell [11] = experiment: Inhibition of LPS-induced TNFalpha release in mast cells; assay type: functional, cell-based
Mus musculus [12] = experiment: Inhibition of ovalbumin-induced IgE production in mouse at 30 mg/kg, ip administered on day 1, 3 and 5 after 1 hr of ovalbumin challenge followed by additional dosing on day 2 and 4 measured on day 8 by ELISA; assay type: functional; set-up: scale not given: the % may be the effect or the level left; conditions: route intraperitoneal
Mast cell [13] = experiment: Inhibition of hexosaminidase release in IgE-stimulated mast cells; assay type: functional, cell-based
Mus musculus [14] = experiment: Antiinflammatory activity against ovalbumin-induced asthma in BALB/c mouse model assessed as reduction in methacoline-induced airway constriction at 30 mg/kg, ip measured on day 32 after ovalbumin challenge; assay type: functional; set-up: scale not given: the % may be the effect or the level left; conditions: route intraperitoneal

pIC50 (Jurkat [1])	pIC50 [2]	pIC50 (Jurkat [7])	Compound	also measured
5.80	7.82	7.24	CN(C)C1CCN(C(=O)[C@]2(O)Cn3c4ccccc4c4c5c(c6c7ccccc7n(c6c43)C[C@H]2O)C(=O)NC5=O)C1 (stereo not given in full)	–
< 5.00	7.41	6.95	O=C1NCc2c1c1c3ccccc3n3c1c1c2c2ccccc2n1C/C=C\C3	–
5.00	–	6.36	O=C1NCc2c1c1c3ccccc3n3c1c1c2c2ccccc2n1CC/C=C\CC3	–
5.25	–	6.80	O=C1NC(=O)c2c1c1c3ccccc3n3c1c1c2c2ccccc2n1CC(O)CC3 (stereo not given)	–
< 5.00	8.52	7.32	O=C1NC(=O)c2c1c1c3ccccc3n3c1c1c2c2ccccc2n1C[C@H](O)[C@H](O)C3	–
–	< 6.70	–	C=CCn1c2ccccc2c2c3c(c4c5ccccc5n(CC=C)c4c21)C(=O)NC3	–
< 5.00	–	5.54	O=C1NC(=O)c2c1c1c3ccccc3n3c1c1c2c2ccccc2n1CC(O)CCC3 (stereo not given)	–
< 5.00	8.05	6.65	O=C1NC(=O)c2c1c1c3ccccc3n3c1c1c2c2ccccc2n1C[C@@](O)(C(=O)O)[C@H](O)C3 (relative stereo)	–
< 5.00	8.05	6.64	O=C1NC(=O)c2c1c1c3ccccc3n3c1c1c2c2ccccc2n1C[C@@H](O)[C@@H](O)CC3 (relative stereo)	–
6.21	7.92	7.35	O=C1NCc2c1c1c3ccccc3n3c1c1c2c2ccccc2n1CC[C@@H](O)[C@@H](O)CC3 (relative stereo)	–
5.00	8.22	7.01	O=C1NCc2c1c1c3ccccc3n3c1c1c2c2ccccc2n1C[C@@H](O)[C@@H](O)C3 (relative stereo)	Activity (Mus musculus [8]): 54%; pIC50 [3]: 6.52; pIC50 (T-cell): 7.00; Activity (Mus musculus [9]): 15%; pIC50 [4]: < 6.00; Activity (Mus musculus [10]): 54%; pIC50 [5]: < 6.00; pIC50 (Mast cell [11]): 7.74; pIC50 [6]: 6.70; Activity (Mus musculus [12]): 70%; pIC50 (Mast cell [13]): 7.26; Activity (Mus musculus [14]): 90%
< 5.00	9.00	7.64	COC(=O)[C@]1(O)Cn2c3ccccc3c3c4c(c5c6ccccc6n(c5c32)C[C@H]1O)C(=O)NC4=O (relative stereo)	pIC50 [3]: < 6.00; pIC50 [4]: 6.52; pIC50 [5]: < 6.00; pIC50 [6]: < 6.00

Compound	pIC50 (Jurkat [1])	pIC50 [2]	pIC50 (Jurkat [7])	also measured
CC(=O)/C1=C/Cn2c3ccccc3c3c4c(c5c6ccccc6n(c5c32)C1)C(=O)NC4=O	< 5.00	8.15	6.24	pIC50 [3]: < 6.00; pIC50 [4]: < 6.00; pIC50 [5]: 6.27; pIC50 [6]: < 6.00
O=C1NCc2c1c1c3ccccc3[nH]c1c1[nH]c3ccccc3c21 [STAUROSPORINONE]	–	7.21	–	–
